Consider twelve compounds from ChEMBL document CHEMBL1201862, “PubChem BioAssay data set” (2004).

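Step 1: Grow cells in 96-well plates. Step 2: Expose to compound for 48 hours at 5 concentrations. Step 3: Interpolate endpoints linearly; if unreached, use highest concentration. GI50 is the concentration that inhibits growth by half.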 Calls of active or inactive are those of the source. Rule as the data show it: active = GI50 up to about 1.1 µM and inactive = higher.

One may read the GI50 as the concentration giving 50% growth inhibition.

Some test systems named below: CAKI-1; MCF7; ACHN; MDA-N; SK-MEL-28; SK-OV-3; UACC-62; HL-60; HOP-92; SF-295; SNB-75; NCI/ADR-RES; HT-29; M14; SK-MEL-5; LOX IMVI; PC-3; NCI-H226; HCC 2998.
Common to all, as to assay: DTP human tumour cell line panel, 48 h

With `CCN=C=NCCCN(C)C`, the GI50 in the assay with CAKI-1, in the assay with MCF7, with ACHN, with MDA-N, in the assay on SK-MEL-28 and in the assay with SK-OV-3 was > 100 µM (inactive) throughout. Further, the GI50 in the assay with UACC-62, in the assay on HL-60, with HOP-92, with SF-295, in the assay with SNB-75 and in the assay on NCI/ADR-RES was > 100 µM (inactive) each time. For the same compound, the GI50 in the assay on HT-29, with M14, in the assay with SK-MEL-5, in the assay with LOX IMVI, with PC-3 and in the assay with NCI-H226 was > 100 µM (inactive) each time.

As to `O=c1/c(=C/c2ccc([N+](=O)[O-])o2)sc2n1[C@@H](c1ccc(Cl)cc1)C=C(c1cc(F)c(Cl)cc1Cl)N=2`, the GI50 with CAKI-1 is 28.7 µM (inactive); with MCF7, 13.3 µM (inactive); in the assay on ACHN, 16.3 µM (inactive); in the assay on MDA-N, 4.65 µM (inactive); in the assay on SK-MEL-28, 24.2 µM (inactive); with SK-OV-3, 14.8 µM (inactive). The GI50 is 14.8 µM (inactive) in the assay on UACC-62; 12.3 µM (inactive) with HL-60; 12.9 µM (inactive) with HOP-92; 21.3 µM (inactive) with SF-295; 29.2 µM (inactive) in the assay on SNB-75; 30.8 µM (inactive) with NCI/ADR-RES. The GI50 was 6.62 µM (inactive) with HT-29; 14.6 µM (inactive) with M14; 13.9 µM (inactive) in the assay on SK-MEL-5; 16 µM (inactive) with LOX IMVI; 11.5 µM (inactive) in the assay on PC-3; 15.8 µM (inactive) in the assay with NCI-H226.

Turning to `COc1ccc(/N=N/c2c(C)c(C#N)c(=S)n(C3OC(CO)C(O)C(O)C3O)c2-c2ccccc2)cc1` (stereo not drawn), the GI50 in the assay with CAKI-1 is 24.2 µM (inactive); in the assay on MCF7, 38.3 µM (inactive); in the assay on ACHN it was 26 µM (inactive); in the assay on MDA-N it was 37.4 µM (inactive); in the assay with SK-MEL-28 it was 25.3 µM (inactive); in the assay with SK-OV-3, 27.2 µM (inactive). The GI50 in the assay with UACC-62 is 18.8 µM (inactive); in the assay on HL-60 it was 58.2 µM (inactive); in the assay on SF-295, 30.8 µM (inactive); with SNB-75 it was 17.2 µM (inactive); in the assay with NCI/ADR-RES, 93.1 µM (inactive); in the assay on HT-29, 32.5 µM (inactive). For the same compound, the GI50 in the assay on HCC 2998 was 88.5 µM (inactive); in the assay on M14 it was 24.9 µM (inactive); in the assay with SK-MEL-5, 11.5 µM (inactive); in the assay with LOX IMVI it was 27.8 µM (inactive); with PC-3 it was 17.1 µM (inactive).

On to `Cc1c(/N=N/c2ccccc2)c(-c2ccccc2)n(C2OC(CO)C(O)C(O)C2O)c(=S)c1C#N` (stereo not drawn), for which the GI50 in the assay with MCF7 was 4.74 µM (inactive); with ACHN, 3.95 µM (inactive); in the assay with MDA-N, 4.71 µM (inactive); with SK-MEL-28 it was 4.03 µM (inactive); in the assay on SK-OV-3, 11.1 µM (inactive); in the assay with UACC-62 it was 3.6 µM (inactive). For the same compound, the GI50 in the assay on HL-60 is 3.66 µM (inactive); with SF-295 it was 6.71 µM (inactive); in the assay on SNB-75, 2.72 µM (inactive); in the assay on NCI/ADR-RES it was 17.3 µM (inactive); with HT-29, 6.59 µM (inactive); with HCC 2998 it was 5.3 µM (inactive). The GI50 with M14 is 6.5 µM (inactive); in the assay on SK-MEL-5 it was 2.33 µM (inactive); in the assay on LOX IMVI, 2.62 µM (inactive); in the assay with PC-3, 2.99 µM (inactive); with NCI-H226, 10.8 µM (inactive).

As for `COC(=O)C1C=CN(N(C)C)C2=C1C(=O)c1c(O)cccc1C2=O` (stereo not drawn), the GI50 in the assay on CAKI-1 is 2.47 µM (inactive); in the assay with MCF7 it was 1.95 µM (inactive); in the assay with ACHN it was 3.37 µM (inactive); in the assay with MDA-N it was 0.422 µM (active); with SK-MEL-28, 1.94 µM (inactive); in the assay on SK-OV-3, 6.19 µM (inactive). In addition, the GI50 in the assay with UACC-62 was 1.04 µM (active); in the assay on SF-295, 1.65 µM (inactive); with SNB-75 it was 1.66 µM (inactive); with NCI/ADR-RES it was 2.22 µM (inactive); in the assay on HT-29, 1.49 µM (inactive); in the assay with HCC 2998 it was 1.93 µM (inactive). Besides, the GI50 with M14 is 1.69 µM (inactive); in the assay on SK-MEL-5 it was 0.54 µM (active); with PC-3 it was 2.96 µM (inactive); with NCI-H226, 1.87 µM (inactive).

Consider `O=c1[nH]c(=O)n(C2CC(O)C(CO)O2)cc1OCCc1ccccc1` (stereo not drawn), for which the GI50 in the assay on CAKI-1, in the assay on MCF7, in the assay on ACHN, with MDA-N, in the assay on SK-MEL-28 and with SK-OV-3 was > 100 µM (inactive) each time. Moreover, the GI50 in the assay on UACC-62, in the assay on HL-60, with SF-295, with SNB-75, in the assay with NCI/ADR-RES and with HT-29 was > 100 µM (inactive) each time. Also, the GI50 with M14, in the assay on SK-MEL-5, with LOX IMVI, in the assay with PC-3 and with NCI-H226 was > 100 µM (inactive) in each case.

For `NCCNS(=O)(=O)c1ccc(N)cc1`, the GI50 with CAKI-1, with MCF7, with ACHN, in the assay with MDA-N, with SK-MEL-28 and in the assay with SK-OV-3 was > 100 µM (inactive) each time. Besides, the GI50 with UACC-62 is > 100 µM (inactive); with HL-60, 18.7 µM (inactive); in the assay on HOP-92 it was > 100 µM (inactive); in the assay with SF-295, > 100 µM (inactive); with SNB-75 it was > 100 µM (inactive); in the assay with NCI/ADR-RES, > 100 µM (inactive). For the same compound, the GI50 in the assay on HT-29, in the assay with M14, with SK-MEL-5, in the assay on LOX IMVI, in the assay with PC-3 and with NCI-H226 was > 100 µM (inactive) throughout.

Consider `O=C(Oc1ccccc1)N1c2ccccc2[C@@]23O[C@]24CCC[C@H]3C#C/C=C\C#C[C@H]14`, for which the GI50 is 13 µM (inactive) in the assay on CAKI-1; 6.5 µM (inactive) in the assay with MCF7; 13.6 µM (inactive) in the assay on MDA-N; 14 µM (inactive) in the assay on SK-MEL-28; 0.173 µM (active) in the assay with SK-OV-3; 7.48 µM (inactive) with UACC-62. Moreover, the GI50 in the assay with HL-60 was 0.506 µM (active); in the assay with HOP-92, 12.3 µM (inactive); in the assay with SF-295 it was 17.1 µM (inactive); with SNB-75 it was 8.85 µM (inactive); in the assay with NCI/ADR-RES, 14.4 µM (inactive); with HT-29 it was 11.2 µM (inactive). Moreover, the GI50 in the assay on M14 was 15.2 µM (inactive); with LOX IMVI, 12.9 µM (inactive); with PC-3, 11.6 µM (inactive); in the assay with NCI-H226, 17.4 µM (inactive).

For the compound `CN(C)c1ccc(C(C#N)N2CCCN(C(C#N)c3ccc(N(C)C)cc3)C2c2ccc(N(C)C)cc2)cc1` (stereo not drawn), the GI50 in the assay on CAKI-1, in the assay on MCF7, with ACHN, with MDA-N, in the assay on SK-MEL-28 and in the assay with SK-OV-3 was > 100 µM (inactive) throughout. Besides, the GI50 in the assay on UACC-62, with HL-60, in the assay with HOP-92, in the assay with SF-295, in the assay with SNB-75 and in the assay on NCI/ADR-RES was > 100 µM (inactive) in each case. The GI50 in the assay on HT-29, in the assay with M14, with SK-MEL-5, with LOX IMVI, in the assay with PC-3 and in the assay on NCI-H226 was > 100 µM (inactive) each time.

As to `CC(=O)OC[C@@]12CC[C@H]3C(C)(C)CCC[C@]3(C)[C@H]1C[C@@H](C1=CC(=O)O[C@H]1O)O2`, the GI50 in the assay with CAKI-1 is 2.64 µM (inactive); with MCF7 it was 1.58 µM (inactive); in the assay on ACHN, 2.54 µM (inactive); in the assay with MDA-N it was 2.24 µM (inactive); in the assay on SK-MEL-28, 1.77 µM (inactive); with UACC-62, 1.94 µM (inactive). Besides, the GI50 was 8.67 µM (inactive) with SF-295; 3.74 µM (inactive) in the assay on SNB-75; 4.5 µM (inactive) with NCI/ADR-RES; 2.52 µM (inactive) with HT-29; 1.61 µM (inactive) with HCC 2998; 2.45 µM (inactive) with M14. Moreover, the values for the GI50 in the assay on SK-MEL-5, in the assay on LOX IMVI and in the assay on PC-3 were 2.8 µM (inactive), 1.34 µM (inactive) and 5.43 µM (inactive), respectively.

For the compound `Clc1cc2nn(C3CCCCO3)nc2cc1Cl` (stereo not drawn), the GI50 in the assay with CAKI-1, in the assay on MCF7, in the assay with ACHN, with MDA-N, in the assay with SK-OV-3 and in the assay on UACC-62 was > 100 µM (inactive) throughout. Also, the GI50 in the assay on SF-295, in the assay with SNB-75, in the assay on NCI/ADR-RES, in the assay on HT-29, with HCC 2998 and with M14 was > 100 µM (inactive) throughout. The GI50 in the assay with SK-MEL-5, in the assay on PC-3 and in the assay with NCI-H226 was > 100 µM (inactive) throughout.

With `OCC(CCc1c[nH]c2ccccc12)c1c[nH]c2ccccc12` (stereo not drawn), the GI50 was 26.1 µM (inactive) in the assay with CAKI-1; 15.5 µM (inactive) in the assay on MCF7; 17.9 µM (inactive) with ACHN; 16.7 µM (inactive) with MDA-N; 20.5 µM (inactive) with SK-MEL-28; 30.5 µM (inactive) with SK-OV-3. The GI50 in the assay on UACC-62 is 14.1 µM (inactive); with HL-60 it was 8.95 µM (inactive); in the assay with HOP-92, 15.2 µM (inactive); with SF-295, 16.7 µM (inactive); in the assay with SNB-75, 19.7 µM (inactive); in the assay on NCI/ADR-RES, 18 µM (inactive). For the same compound, the GI50 with HT-29 was 17 µM (inactive); in the assay with M14, 15.3 µM (inactive); in the assay with SK-MEL-5, 16.8 µM (inactive); in the assay on LOX IMVI it was 14.3 µM (inactive); in the assay with PC-3, 17.2 µM (inactive); with NCI-H226, 18.1 µM (inactive).
